Results published in US12570683B2, “Polymorphic form of reduced beta-nicotinamide mononucleotide disodium salt, and preparation method therefor and use thereof” (EFFEPHARM (SHANGHAI) CO., LTD., priority 2022, dated 2026).

Columns and labels:
Type in all cases: physicochemical
[1] = Exposure in air at 2-8° C., relative humidity 70-80% (crystal form transformation by absorbing water); conditions: RH 70-80%
Description: Moisture (KF) determination method: MC-2000 automatic micro-moisture tester from Min Measure Instrument and Equipment (Xiamen) Co., Ltd. and Karl Fischer reagent from Nanjing Chemical Reagent Co., Ltd.

[2] = Stability, placed openly in stability chamber at 25° C. and 65% RH; conditions: open
[3] = Stability, placed openly in stability chamber at 4° C. and 75% RH; conditions: open
[4] = 0 day, listed as amorphous solid, disodium salt
[5] = 1 day, listed as amorphous solid, disodium salt

## NC(=O)C1=CN([C@@H]2O[C@H](COP(=O)([O-])[O-])[C@@H](O)[C@H]2O)C=CC1.[Na+].[Na+] [crystal form B, reduced β-nicotinamide mononucleotide disodium salt]
[1]; after 30 days
  Moisture (KF) after exposure: 29%
  Resulting solid crystal form: crystal form A

## NC(=O)C1=CN([C@@H]2O[C@H](COP(=O)([O-])[O-])[C@@H](O)[C@H]2O)C=CC1.[Na+].[Na+] [crystal form C, reduced β-nicotinamide mononucleotide disodium salt]
[1]; after 24 hours
  Moisture (KF) after exposure: 24%
  Resulting solid crystal form: crystal form A

## NC(=O)C1=CN([C@@H]2O[C@H](COP(=O)([O-])[O-])[C@@H](O)[C@H]2O)C=CC1.[Na+].[Na+] [Crystal form A, reduced β-nicotinamide mononucleotide disodium salt]
[2]; 0 day, disodium salt
  NMNH disodium salt purity (HPLC, % area): 99.33 % area
[2]; 0 day, listed as crystal form A, disodium salt
  NMNH disodium salt purity (HPLC, % area): 99.33 % area
[2]; 1 day, disodium salt
  NMNH disodium salt purity (HPLC, % area): 99.27 % area
[2]; 5 day
  NMNH disodium salt purity (HPLC, % area): 99.01 % area
[2]; 5 days
  Appearance of solid: still a crystal powder
[3]; 0 day, disodium salt
  NMNH disodium salt purity (HPLC, % area): 99.33 % area
[3]; 5 day, disodium salt
  NMNH disodium salt purity (HPLC, % area): 99.35 % area
[3]; 18 day, disodium salt
  NMNH disodium salt purity (HPLC, % area): 99.33 % area
[3]; 18 day, listed as crystal form A, disodium salt
  NMNH disodium salt purity (HPLC, % area): 99.33 % area
[3]; 18 days, disodium salt
  Appearance of solid: still a crystal powder

## NC(=O)C1=CN([C@@H]2O[C@H](COP(=O)([O-])[O-])[C@@H](O)[C@H]2O)C=CC1.[Na+].[Na+] [Amorphous Solids, reduced β-nicotinamide mononucleotide disodium salt]
[2]; 0 day
  Appearance of solid: (powders)
[2]; 0 day, disodium salt
  NMNH disodium salt purity (HPLC, % area): 99.30 % area
[2]; [4]
  NMNH disodium salt purity (HPLC, % area): 99.30 % area
[2]; 1 day, disodium salt
  Appearance of solid: (oil)
  NMNH disodium salt purity (HPLC, % area): 99.02 % area
[2]; [5]
  Appearance of solid: the powder absorbed water and turned into an oil
  NMNH disodium salt purity (HPLC, % area): 99.02 % area
[3]; 0 day, disodium salt
  NMNH disodium salt purity (HPLC, % area): 99.30 % area
[3]; [4]
  NMNH disodium salt purity (HPLC, % area): 99.30 % area
[3]; 5 day, disodium salt
  NMNH disodium salt purity (HPLC, % area): 99.26 % area
[3]; 5 day, listed as amorphous solid, disodium salt
  NMNH disodium salt purity (HPLC, % area): 99.26 % area
[3]; 5 days
  Appearance of solid: the powder solid absorbed water and became viscous to form a mass
[3]; 18 day, disodium salt
  NMNH disodium salt purity (HPLC, % area): 99.17 % area
[3]; 18 day, listed as amorphous solid, disodium salt
  NMNH disodium salt purity (HPLC, % area): 99.17 % area
[3]; 18 days, disodium salt
  Appearance of solid: the color became darker
